Experiments:
[1] = biological target: T1, Mitogen-activated protein kinase 12 (Homo sapiens) (UniProt P53778); details: at 10 µM
T1 sequence (whole entry): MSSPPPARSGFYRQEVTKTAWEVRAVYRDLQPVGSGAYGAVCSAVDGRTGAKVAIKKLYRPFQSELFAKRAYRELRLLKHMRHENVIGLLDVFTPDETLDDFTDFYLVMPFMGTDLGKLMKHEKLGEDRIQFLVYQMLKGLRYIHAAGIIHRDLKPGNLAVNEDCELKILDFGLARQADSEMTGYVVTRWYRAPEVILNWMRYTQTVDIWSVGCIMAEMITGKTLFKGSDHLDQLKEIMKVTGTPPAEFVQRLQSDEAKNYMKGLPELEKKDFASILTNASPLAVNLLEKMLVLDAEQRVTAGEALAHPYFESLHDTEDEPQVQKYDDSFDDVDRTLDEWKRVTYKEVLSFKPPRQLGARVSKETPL

[2] = test system: T2, Receptor-type tyrosine-protein kinase FLT3 (Homo sapiens), P36888 [D835V]; assay: Selectivity interaction (KinomeScan (DiscoverX)) EUB0000229b FLT3; details: at 1 µM
T2 sequence (whole entry): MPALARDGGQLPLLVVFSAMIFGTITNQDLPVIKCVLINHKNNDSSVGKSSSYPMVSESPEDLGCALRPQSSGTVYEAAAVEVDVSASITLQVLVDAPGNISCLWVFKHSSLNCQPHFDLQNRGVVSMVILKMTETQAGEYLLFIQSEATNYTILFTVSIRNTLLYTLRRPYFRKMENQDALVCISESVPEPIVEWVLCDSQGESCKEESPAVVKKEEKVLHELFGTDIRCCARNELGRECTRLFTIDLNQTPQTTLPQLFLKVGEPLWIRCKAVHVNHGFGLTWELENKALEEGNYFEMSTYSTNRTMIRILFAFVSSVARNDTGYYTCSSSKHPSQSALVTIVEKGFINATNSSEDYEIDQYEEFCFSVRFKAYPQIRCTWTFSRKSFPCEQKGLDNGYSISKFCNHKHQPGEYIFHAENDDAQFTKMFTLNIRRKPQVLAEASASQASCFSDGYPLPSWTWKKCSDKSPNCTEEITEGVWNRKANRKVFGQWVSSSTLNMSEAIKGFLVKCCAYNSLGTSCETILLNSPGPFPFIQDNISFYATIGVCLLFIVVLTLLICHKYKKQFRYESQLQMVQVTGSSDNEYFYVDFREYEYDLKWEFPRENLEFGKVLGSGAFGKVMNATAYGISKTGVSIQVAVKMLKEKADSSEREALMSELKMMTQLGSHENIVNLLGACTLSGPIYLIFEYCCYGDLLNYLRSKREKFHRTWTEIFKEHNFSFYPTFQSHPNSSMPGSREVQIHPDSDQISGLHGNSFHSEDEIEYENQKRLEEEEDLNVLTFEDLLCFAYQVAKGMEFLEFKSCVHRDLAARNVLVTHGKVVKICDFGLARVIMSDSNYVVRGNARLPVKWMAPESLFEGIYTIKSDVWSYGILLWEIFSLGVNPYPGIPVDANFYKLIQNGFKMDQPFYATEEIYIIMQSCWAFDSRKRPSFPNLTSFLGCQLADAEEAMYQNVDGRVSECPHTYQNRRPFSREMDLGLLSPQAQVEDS

[3] = biological target: Serine/threonine-protein kinase Nek4 (Homo sapiens) (UniProt P51957); assay: Selectivity interaction (KinomeScan (DiscoverX)) EUB0000666a NEK4; details: at 10 µM
[4] = biological target: Mitogen-activated protein kinase kinase kinase 1 (Homo sapiens, UniProt Q13233); assay: Selectivity interaction (KinomeScan (DiscoverX)) EUB0000666a MAP3K1; details: at 10 µM
[5] = biological target: T3, Ephrin type-B receptor 1 (Homo sapiens) (UniProt P54762); assay: Selectivity interaction (Kinase panel (Z-LYTE Assay)) EUB0001632a EPHB1; details: at 10 µM
T3 sequence (whole entry): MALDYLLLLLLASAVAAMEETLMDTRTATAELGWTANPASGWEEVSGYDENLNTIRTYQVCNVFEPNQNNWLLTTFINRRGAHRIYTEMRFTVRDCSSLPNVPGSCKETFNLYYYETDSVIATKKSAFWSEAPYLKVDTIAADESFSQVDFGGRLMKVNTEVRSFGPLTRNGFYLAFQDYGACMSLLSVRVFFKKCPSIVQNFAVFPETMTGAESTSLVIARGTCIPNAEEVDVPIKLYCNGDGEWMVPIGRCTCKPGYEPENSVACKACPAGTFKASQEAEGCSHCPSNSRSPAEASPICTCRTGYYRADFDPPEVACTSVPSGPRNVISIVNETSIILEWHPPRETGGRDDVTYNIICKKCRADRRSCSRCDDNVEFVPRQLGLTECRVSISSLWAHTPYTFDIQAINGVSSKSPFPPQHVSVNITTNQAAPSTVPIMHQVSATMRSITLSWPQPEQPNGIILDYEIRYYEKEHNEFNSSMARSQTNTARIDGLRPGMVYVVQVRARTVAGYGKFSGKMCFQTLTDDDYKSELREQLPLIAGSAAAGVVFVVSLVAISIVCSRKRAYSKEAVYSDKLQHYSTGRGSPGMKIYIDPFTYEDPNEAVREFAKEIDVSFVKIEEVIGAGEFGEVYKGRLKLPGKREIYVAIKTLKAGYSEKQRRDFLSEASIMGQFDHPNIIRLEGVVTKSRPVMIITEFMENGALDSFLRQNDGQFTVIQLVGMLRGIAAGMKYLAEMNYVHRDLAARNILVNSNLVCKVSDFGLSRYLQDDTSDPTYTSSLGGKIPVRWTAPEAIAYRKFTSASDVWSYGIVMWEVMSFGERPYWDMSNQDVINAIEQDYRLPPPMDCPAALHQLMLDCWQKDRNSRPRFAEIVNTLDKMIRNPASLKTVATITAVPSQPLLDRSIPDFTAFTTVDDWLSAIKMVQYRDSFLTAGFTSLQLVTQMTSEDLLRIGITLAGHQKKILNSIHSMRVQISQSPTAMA

[6] = biological target: Tyrosine-protein kinase FRK (Homo sapiens) (UniProt P42685); assay: Selectivity interaction (KinomeScan (DiscoverX)) EUB0000607a FRK; details: at 10 µM
[7] = biological target: Ribosomal protein S6 kinase alpha-5 (Homo sapiens) (UniProt O75582); assay: Selectivity interaction (Kinase panel (literature)) EUB0001199aCl RPS6KA5; details: at 1 µM
[8] = biological target: Phosphatidylinositol 4,5-bisphosphate 3-kinase catalytic subunit alpha isoform (Homo sapiens) (UniProt P42336); assay: Selectivity interaction (Kinase panel (literature)) EUB0001199aCl PIK3CA; details: at 1 µM
[9] = biological target: Receptor-interacting serine/threonine-protein kinase 2 (Homo sapiens, UniProt O43353); assay: Selectivity interaction (KinomeScan (DiscoverX)) EUB0001619a RIPK2; details: at 1 µM
Receptor-interacting serine/threonine-protein kinase 2, sequence (O43353 whole entry): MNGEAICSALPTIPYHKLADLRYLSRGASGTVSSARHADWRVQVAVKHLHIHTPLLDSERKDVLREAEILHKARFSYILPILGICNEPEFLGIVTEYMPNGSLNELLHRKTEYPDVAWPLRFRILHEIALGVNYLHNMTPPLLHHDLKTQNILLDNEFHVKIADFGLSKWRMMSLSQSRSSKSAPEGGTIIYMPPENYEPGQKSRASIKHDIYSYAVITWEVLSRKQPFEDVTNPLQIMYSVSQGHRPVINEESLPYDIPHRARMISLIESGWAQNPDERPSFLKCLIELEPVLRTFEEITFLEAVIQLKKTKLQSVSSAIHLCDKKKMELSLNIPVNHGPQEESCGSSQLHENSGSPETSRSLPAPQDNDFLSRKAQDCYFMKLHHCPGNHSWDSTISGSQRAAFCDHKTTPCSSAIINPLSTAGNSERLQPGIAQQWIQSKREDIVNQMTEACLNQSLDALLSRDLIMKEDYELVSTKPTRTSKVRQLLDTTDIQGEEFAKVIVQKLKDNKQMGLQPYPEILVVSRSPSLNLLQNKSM

Ribosomal protein S6 kinase alpha-5 (Homo sapiens), sequence (O75582 whole entry, looked up, canonical isoform): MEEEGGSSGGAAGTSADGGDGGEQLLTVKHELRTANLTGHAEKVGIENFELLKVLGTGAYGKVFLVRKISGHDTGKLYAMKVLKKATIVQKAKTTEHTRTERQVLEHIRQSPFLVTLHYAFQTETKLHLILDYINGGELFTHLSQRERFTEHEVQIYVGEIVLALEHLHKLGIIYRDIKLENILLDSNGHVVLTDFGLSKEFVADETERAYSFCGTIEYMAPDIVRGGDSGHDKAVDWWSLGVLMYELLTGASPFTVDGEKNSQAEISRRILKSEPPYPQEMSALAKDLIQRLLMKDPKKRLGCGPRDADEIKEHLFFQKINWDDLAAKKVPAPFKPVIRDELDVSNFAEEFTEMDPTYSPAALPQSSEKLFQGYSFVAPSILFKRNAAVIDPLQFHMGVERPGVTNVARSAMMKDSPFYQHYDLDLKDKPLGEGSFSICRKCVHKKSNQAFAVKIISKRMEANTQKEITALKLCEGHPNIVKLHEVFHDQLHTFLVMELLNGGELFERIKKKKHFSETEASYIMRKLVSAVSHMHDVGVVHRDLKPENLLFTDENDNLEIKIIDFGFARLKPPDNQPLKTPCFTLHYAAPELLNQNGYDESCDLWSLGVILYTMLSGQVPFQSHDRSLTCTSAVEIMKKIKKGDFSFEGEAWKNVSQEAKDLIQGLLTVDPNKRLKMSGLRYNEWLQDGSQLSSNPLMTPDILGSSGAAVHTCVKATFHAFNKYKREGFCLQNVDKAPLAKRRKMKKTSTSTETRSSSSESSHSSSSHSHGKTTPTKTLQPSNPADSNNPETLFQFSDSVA
Serine/threonine-protein kinase Nek4 (Homo sapiens), sequence (P51957 whole entry, looked up): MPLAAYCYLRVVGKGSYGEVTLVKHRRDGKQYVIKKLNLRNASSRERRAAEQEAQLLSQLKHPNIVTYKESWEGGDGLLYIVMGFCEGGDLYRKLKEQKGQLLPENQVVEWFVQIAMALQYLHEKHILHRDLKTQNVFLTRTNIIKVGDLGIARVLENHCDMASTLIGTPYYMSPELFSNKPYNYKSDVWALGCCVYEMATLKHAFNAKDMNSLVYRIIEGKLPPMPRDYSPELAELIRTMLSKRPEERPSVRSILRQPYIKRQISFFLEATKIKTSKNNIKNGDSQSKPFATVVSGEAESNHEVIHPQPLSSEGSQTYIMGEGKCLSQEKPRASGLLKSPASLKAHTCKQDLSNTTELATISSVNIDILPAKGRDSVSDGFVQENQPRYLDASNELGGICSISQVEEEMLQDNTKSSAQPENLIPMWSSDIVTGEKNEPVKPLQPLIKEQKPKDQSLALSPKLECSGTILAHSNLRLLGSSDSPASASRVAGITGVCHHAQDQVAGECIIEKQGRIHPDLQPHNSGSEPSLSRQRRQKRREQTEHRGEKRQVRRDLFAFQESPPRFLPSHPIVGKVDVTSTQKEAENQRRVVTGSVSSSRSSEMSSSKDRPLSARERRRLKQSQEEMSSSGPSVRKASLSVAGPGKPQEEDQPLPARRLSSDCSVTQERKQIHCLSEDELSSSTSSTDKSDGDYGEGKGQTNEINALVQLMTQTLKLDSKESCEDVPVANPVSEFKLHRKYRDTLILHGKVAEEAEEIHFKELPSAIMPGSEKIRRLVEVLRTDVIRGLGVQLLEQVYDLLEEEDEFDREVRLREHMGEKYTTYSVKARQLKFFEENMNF
Tyrosine-protein kinase FRK (Homo sapiens), sequence (P42685 whole entry): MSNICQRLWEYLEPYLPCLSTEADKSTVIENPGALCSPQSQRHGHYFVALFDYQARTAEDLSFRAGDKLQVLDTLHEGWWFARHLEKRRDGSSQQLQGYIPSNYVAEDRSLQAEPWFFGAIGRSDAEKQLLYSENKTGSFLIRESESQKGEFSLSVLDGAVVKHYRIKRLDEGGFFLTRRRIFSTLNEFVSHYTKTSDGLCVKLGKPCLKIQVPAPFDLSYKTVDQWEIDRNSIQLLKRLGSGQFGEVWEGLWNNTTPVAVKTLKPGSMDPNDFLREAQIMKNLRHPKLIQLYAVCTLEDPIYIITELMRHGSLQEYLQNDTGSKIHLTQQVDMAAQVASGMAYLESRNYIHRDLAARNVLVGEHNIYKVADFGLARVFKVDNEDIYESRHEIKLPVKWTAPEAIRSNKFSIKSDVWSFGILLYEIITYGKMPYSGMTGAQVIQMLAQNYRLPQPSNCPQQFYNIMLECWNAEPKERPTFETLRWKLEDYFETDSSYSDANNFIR
Mitogen-activated protein kinase kinase kinase 1, sequence (Q13233 whole entry): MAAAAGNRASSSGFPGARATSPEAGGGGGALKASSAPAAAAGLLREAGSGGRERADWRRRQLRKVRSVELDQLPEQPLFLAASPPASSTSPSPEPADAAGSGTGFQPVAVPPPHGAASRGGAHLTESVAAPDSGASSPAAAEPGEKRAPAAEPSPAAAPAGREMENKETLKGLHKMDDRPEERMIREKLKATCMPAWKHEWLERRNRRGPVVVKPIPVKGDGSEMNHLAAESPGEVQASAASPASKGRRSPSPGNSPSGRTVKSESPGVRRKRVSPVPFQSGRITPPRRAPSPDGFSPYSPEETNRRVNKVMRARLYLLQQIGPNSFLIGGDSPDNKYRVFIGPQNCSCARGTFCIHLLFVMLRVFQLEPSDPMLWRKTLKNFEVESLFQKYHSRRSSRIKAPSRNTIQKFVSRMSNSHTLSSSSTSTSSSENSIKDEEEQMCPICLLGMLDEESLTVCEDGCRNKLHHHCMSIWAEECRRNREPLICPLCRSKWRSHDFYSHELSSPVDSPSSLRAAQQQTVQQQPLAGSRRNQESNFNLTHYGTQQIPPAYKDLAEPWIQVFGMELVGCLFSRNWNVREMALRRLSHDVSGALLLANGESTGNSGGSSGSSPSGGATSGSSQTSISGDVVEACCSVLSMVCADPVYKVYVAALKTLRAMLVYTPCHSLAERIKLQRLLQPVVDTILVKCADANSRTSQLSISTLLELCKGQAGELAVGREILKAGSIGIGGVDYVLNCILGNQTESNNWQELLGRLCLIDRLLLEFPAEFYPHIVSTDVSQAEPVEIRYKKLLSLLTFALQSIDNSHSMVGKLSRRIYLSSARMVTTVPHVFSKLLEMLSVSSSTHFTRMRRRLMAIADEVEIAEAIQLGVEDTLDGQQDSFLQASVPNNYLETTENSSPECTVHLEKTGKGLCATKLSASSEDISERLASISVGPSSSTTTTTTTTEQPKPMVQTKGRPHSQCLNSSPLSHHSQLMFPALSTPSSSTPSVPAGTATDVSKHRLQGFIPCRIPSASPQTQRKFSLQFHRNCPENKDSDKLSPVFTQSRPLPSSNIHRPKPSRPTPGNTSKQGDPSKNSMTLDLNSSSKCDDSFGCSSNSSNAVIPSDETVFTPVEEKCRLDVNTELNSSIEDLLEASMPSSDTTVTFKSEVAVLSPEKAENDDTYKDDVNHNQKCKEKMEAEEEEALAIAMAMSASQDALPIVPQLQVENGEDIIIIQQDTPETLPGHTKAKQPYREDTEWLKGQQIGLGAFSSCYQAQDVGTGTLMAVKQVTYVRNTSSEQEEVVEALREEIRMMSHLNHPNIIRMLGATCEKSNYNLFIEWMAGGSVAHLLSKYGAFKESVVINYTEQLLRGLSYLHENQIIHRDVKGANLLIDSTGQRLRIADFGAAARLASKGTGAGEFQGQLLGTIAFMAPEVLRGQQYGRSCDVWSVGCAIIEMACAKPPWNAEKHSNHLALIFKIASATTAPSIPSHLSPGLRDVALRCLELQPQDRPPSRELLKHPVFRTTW

Molecule `CCN(CC)CCCCNc1ncc2cc(-c3cc(OC)cc(OC)c3)c(NC(=O)NC(C)(C)C)nc2n1` has a % of control [1] of 100%.

With `COc1cc(N(C)c2ccnc3ccc(C(F)(F)F)cc23)cc(OC)c1OC` the % binding [2] was 88%.

`O=C(NOC[C@H](O)CO)c1ccc(F)c(F)c1Nc1ccc(I)cc1F` showed a % of control [3] of 78% and a % of control [4] of 54%.

`Cn1cc(-n2cnc3c(NCc4nc5cc(Cl)c(Cl)cc5[nH]4)nc(N4CCOCC4)nc32)cn1` gave a % of control [5] of -4.1%.

In the case of `CNC(=O)Nc1ccc(-c2nc(N3CC4CCC(C3)O4)c3cnn(C4CCC5(CC4)OCCO5)c3n2)cc1`, the % of control [6] was 68%.

`CN1Cc2nccc(-c3cn(C)nc3-c3ccc(F)cc3)c2C1=O` gave a % of inhibition [7] of 0% and a % of inhibition [8] of 1%.

For `N#Cc1cccc(-c2c[nH]c3ncnc(N4CCOCC4)c23)c1`, the % of control [9] was 84%.

— ChEMBL document CHEMBL5465560, “Selectivity Literature for EUbOPEN Chemogenomic Library” (2024)
